The record followed here is PMC6261651, “A functional proteomics platform to reveal the sequence determinants of lysine methyltransferase substrate selectivity” (Science Advances, 2018).

What all share (assay type): biochemical
The target of test [1] is T1, SMYD2 (Homo sapiens, UniProt Q9NRG4).
T1 construct: SMYD2 (full length) was expressed as a N-terminal glutathione S-transferase (GST) fusion; GST (N); made in house; host or cells: Escherichia coli BL21(DE3)
In words: SPA kinetic analysis of SMYD2 methylation of peptide substrates. As to conditions: 200 nM SMYD2, 50 μM SAM, varied substrate concentration, mean of three independent measurements (Fig. 4D). The method, then: (§1) Reactions (10 μl) containing 1 μg of KMT, 1 μg of a K-OPL set, and 1 μCi of ^3H-SAM (PerkinElmer) in KMT reaction buffer [50 mM tris (pH 8.8), 5 mM MgCl2, and 4 mM dithiothreitol] were incubated for 1 hour at room temperature. Reactions were stopped by adding trifluoracetic acid to a final concentration of 0.5%, neutralized by diluting with 135 μl of 50 mM NaHCO3, and transferred to streptavidin-coated FlashPlates (PerkinElmer). Plates were incubated for 15 min, sealed, and counted in a MicroBeta2 liquid scintillation counter (PerkinElmer) for 1 min per sample. Initial rate measure and kinetic analysis were performed using the same procedure with 200 nM SMYD2, 50 μM SAM (5:1 cold/hot ratio), and 80 μM substrate (initial rate measurements) or as indicated (kinetic analysis). IC50 measurements were performed using the same conditions with 5 μM PER2 peptide as a substrate.

The target in test [2] is T1, SMYD2. Kind of test: In vitro SMYD2 methyltransferase assay with protein substrates (SDS-PAGE, 3H fluorography). As to conditions: 1 μg of KMT, 1 μg of substrate, 1 μCi 3H-SAM, 1 hour, room temperature; 3H fluorography (Fig. 5A, 5B, fig. S5A). The method, then: Reactions (10 μl) containing 1 μg of KMT, 1 μg of the indicated substrates, and 1 μCi of ^3H-SAM (PerkinElmer) in KMT reaction buffer were incubated for 1 hour at room temperature. Reactions were quenched by the addition of SDS loading buffer and resolved by SDS–polyacrylamide gel electrophoresis. Following the detection of total protein by Coomassie staining, gels were treated with EN^3HANCE (PerkinElmer) and dried, and methylated proteins were detected by autoradiography.
Fig. S5. In vitro SMYD2 assays with protein substrates. (A) Coomassie stained SDS-PAGE of recombinant control (HIS-GST), known substrates (p53, MAPKAPK3), and predicted substrates (PRDM11, GDAP1, MAP3K12) in the absence and presence of SMYD2. Reactions were carried out with 1 μg of SMYD2, 1 μg of substrate, and 1 μCi of 3H-SAM. 3H fluorograph shown below after 24 hour exposure at -80 °C (B) Cartoon repre- sentation of ZPK (PDB:
5CEN) showing plus and minus three amino acids from the target lysine (PO) as stick models.
(1 picture or pasted object on this page, not shown here)

Test [3] has as its target T1, SMYD2. In words: SPA initial rate measurements with peptide substrates, SMYD2. As to conditions: 200 nM SMYD2, 50 μM SAM (5:1 cold/hot), 80 μM substrate, room temperature, mean of three independent measurements (Fig. 2F), text gives words only.
Excerpt: To measure enzyme activity, we developed a scintillation proximity assay (SPA), which quantified the transfer of tritium-labeled methyl groups from the cofactor and methyl donor S-adenosylmethionine (SAM) to each K-OPL set (Fig. 1B). SPAs permit sensitive analysis of enzymatic activity and are advantageous when the reaction product is unknown. This platform enabled us to rapidly determine a KMT’s preference for any amino acid (except cysteine) at any position ± three positions from a target lysine.
as §1

Test [4] deals with T1, SMYD2. Kind of test: IC50 measurements of Nle peptide inhibitors of SMYD2 using PER2 as a substrate (SPA). As to conditions: 200 nM SMYD2, 50 μM SAM, 5 μM PER2 peptide as substrate, mean of three (Fig. 4E), IC50 values not given. The procedure:
as §1

Test [5] addresses T1, SMYD2. In words: MALDI-TOF-MS and MS/MS analysis of methylation products, SMYD2. The note with it: 200 nM KMT, 80 μM peptide, 50 μM SAM, 1 hour, room temperature; MALDI-TOF-MS (Fig. 3C). The method, then:
(§2) For MS experiments, 200 nM KMT, 80 μM peptide, and 50 μM SAM were incubated in KMT reaction buffer for 1 hour at room temperature. Reactions were quenched with 0.5% trifluoroacetic acid and analyzed by MS. KMT-reacted samples were deposited on a MALDI target plate (4 μl per spot) and mixed with 1 μl of matrix solution (α-cyano-4-hydroxycinnamic acid in 50% acetonitrile). MALDI-TOF-MS and MS/MS (positive ion mode at 1 kV) spectra were collected using SCIEX TOF/TOF 5800 MALDI MS spectrometer. The peptide fragmentation modeling and peak assignments were done using the Peptide Sequence Fragmentation Modeling tool (https://omics.pnl.gov/software/molecular-weight-calculator).

Test [6] deals with T2, SET7/9 (Homo sapiens, UniProt Q8WTS6).
T2 construct: purchased New England BioLabs M0223
T2 sequence (Q8WTS6 1-366): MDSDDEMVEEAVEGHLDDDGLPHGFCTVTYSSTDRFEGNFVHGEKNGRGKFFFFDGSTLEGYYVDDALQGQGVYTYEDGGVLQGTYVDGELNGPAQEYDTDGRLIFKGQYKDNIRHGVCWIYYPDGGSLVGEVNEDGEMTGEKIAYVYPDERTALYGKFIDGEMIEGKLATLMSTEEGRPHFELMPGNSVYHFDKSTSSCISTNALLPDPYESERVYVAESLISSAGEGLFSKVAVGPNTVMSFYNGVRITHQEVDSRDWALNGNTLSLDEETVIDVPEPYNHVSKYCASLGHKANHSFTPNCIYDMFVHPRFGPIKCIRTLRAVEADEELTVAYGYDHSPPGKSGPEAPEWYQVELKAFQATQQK
In words: SPA initial rate measurements with peptide substrates, SET7/9. The note with it: 3H-SAM, 50 μM SAM (5:1 cold/hot), 80 μM substrate, room temperature, mean of three independent measurements (Fig. 2E), text gives words only.

The target of test [7] is T2, SET7/9. Kind of test: MALDI-TOF-MS and MS/MS analysis of methylation products, SET7/9. As to conditions: 200 nM KMT, 80 μM peptide, 50 μM SAM, 1 hour, room temperature; MALDI-TOF-MS (Fig. 3B). The procedure: as §2
The target in test [8] is T3, G9a (Homo sapiens, UniProt Q96KQ7).
T3 construct: G9a (amino acids 913 to 1210) was produced as a 6XHis N-terminal fusion; 6XHis (N); made in house; host or cells: Escherichia coli BL21(DE3)
T3 sequence (Q96KQ7 913-1210): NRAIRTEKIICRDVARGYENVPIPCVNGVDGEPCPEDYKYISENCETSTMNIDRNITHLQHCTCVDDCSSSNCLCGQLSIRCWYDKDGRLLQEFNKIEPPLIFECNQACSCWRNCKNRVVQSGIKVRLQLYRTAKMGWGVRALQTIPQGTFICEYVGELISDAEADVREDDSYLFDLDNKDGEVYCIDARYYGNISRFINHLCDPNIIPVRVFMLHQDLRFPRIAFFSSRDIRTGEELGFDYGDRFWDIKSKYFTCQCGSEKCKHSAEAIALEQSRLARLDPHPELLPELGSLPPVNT
In words: MALDI-TOF-MS and MS/MS analysis of methylation products, G9a. As to conditions: 200 nM KMT, 80 μM peptide, 50 μM SAM, 1 hour, room temperature; MALDI-TOF-MS (Fig. 3A). The procedure: as §2

Test [9] addresses T3, G9a. Kind of test: SPA initial rate measurements with peptide substrates, G9a. The note with it: 3H-SAM, 50 μM SAM (5:1 cold/hot), 80 μM substrate, room temperature, mean of three independent measurements (Fig. 2D), text gives words only.

“Also recorded” adds a separate entry of the source. Where no end group is shown, it is not given here. [ ]: non-standard residue; d: D form. Nle = CCCC[C@H](N)C(=O)O

T1 sequence (Q9NRG4 whole entry, the tested form may be a part): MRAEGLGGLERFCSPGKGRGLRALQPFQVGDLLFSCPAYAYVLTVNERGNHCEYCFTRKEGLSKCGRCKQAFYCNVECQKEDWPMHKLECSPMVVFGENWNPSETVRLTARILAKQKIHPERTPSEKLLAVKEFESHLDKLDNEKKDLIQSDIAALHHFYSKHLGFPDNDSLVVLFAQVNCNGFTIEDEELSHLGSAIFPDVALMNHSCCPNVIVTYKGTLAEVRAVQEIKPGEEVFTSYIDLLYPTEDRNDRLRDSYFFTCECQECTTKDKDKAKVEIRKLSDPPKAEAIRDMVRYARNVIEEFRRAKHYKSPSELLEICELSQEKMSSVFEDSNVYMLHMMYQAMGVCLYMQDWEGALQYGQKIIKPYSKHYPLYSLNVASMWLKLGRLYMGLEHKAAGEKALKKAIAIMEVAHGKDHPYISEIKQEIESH

Turning to “DKLKSKR [PER2 derivative peptide with aspartic acid in the P−3 position]”, in test [1], the “kinetic model of SMYD2 methylation” value was “followed a classical MM model”.
Regarding “PRDM11 K89D: PRDM11 mutant predicted to render this SMYD2 substrate deficient”, the “methylation of recombinant protein substrate by SMYD2” value in test [2] is given as “reduced compared to the wild-type PRDM11”.
The same measure, in the same setting: to “PRDM11: recombinant PRDM11 (amino acids 79 to 314)” belongs “methylated by SMYD2; also recorded: at least as efficiently as the known substrate, p53”.
Turning to “RKDKSKR [PER2 derivative peptide with aspartic acid in the P−1 position]”, the “rate of methylation by SMYD2 (substrate efficiency)” value (“rate of methylation by SMYD2” below) in test [3] was “equally poor SMYD2 substrates”.
Consider RKD[Nle]SKR [Nle derivative of RKDKSKR], for which the “inhibition of SMYD2 methylation of PER2” value in [4] is recorded as “less effective”.
Turning to “RKLKEKR [PER2 derivative peptide with glutamic acid in the P+1 position]”, the “rate of methylation by SMYD2” value in test [3] is reported as “equally poor SMYD2 substrates”.
Take “RKLKSKR [PER2 K798, peptide corresponding to lysine 798 of PER2; SMYD2 substrate]”: the “rate of methylation by SMYD2” value in [3] was “more efficient substrate than peptides corresponding to previously reported SMYD2 substrates p53 K370 and MAPKAPK3 K355”. For the same substance, in test [5], the “methylation products with SMYD2” value was “addition of a single methyl group”.
In the case of “RRSKRRK [SCN5A K477, optimal SET7/9 substrate predicted by K-OPL]”, in test [6], the “rate of methylation by SET7/9 (substrate efficiency)” value was “methylated at a faster rate than p53 K372”. In test [7], the “methylation products with SET7/9” value is “addition of a single methyl group”.
“SHLKSKK [p53 K370, peptide corresponding to previously reported SMYD2 substrate p53 K370, reference compound]”: the “kinetic model of SMYD2 methylation” value is recorded as “standard Michaelis-Menten (MM) model” in test [1] and “classical MM kinetics” in test [1] (listed as p53).
In the case of “TARKRFK [optimal G9a peptide substrate derived from the K-OPL profile]”, the “methylation products with G9a” value in test [8] is “both monomethyl and dimethyl products”. Further, the “rate of methylation by G9a (substrate efficiency)” value in test [9] is “more efficient substrate than H3K9 or WIZ”.
With “WKLKSKR [optimal K-OPL-derived SMYD2 substrate, not found in any human protein]”, the “rate of methylation by SMYD2” value in test [3] is listed as “increased the rate of methylation”. Further, the “kinetic model of SMYD2 methylation” value in test [1] is “consistent with substrate inhibition”.
